The text below walks through data of PubChem BioAssay AID1963858 (Molecular Pharmacology Branch, DTP, NCI, 2024).

For this test, the system named is HOP-62 multicell spheroids with HUVEC/MSC, viability. In words: Anticancer human tumor HOP-62 cell line growth inhibition [KRAS2].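 On all read-outs here: viability read after a week of compound exposure.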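 On viability, T/C: 100% = DMSO vehicle-treated spheroids.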 To be noted: for viability, T/C: stronger effect = lower value. In short, it runs like this: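 Combination screen of spheroid viability in tumor-cell co-cultures with endothelial (HUVEC) and mesenchymal stem cell stroma. Each agent was tested in half-log dilutions, topping at clinical Cmax or at 10 microM without a known Cmax.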

Setting [1] is: curve of first compound, second compound 0.1 µM.
Setting [2] is: curve of first compound, second compound 0.316 µM.
Where [3] appears, read: curve of first compound, second compound 1 µM.
[4] abbreviates: curve of first compound, second compound 3.16 µM.
[5] abbreviates: second compound 0.1 µM, first compound 0.0316 µM.
Setting [6] is: second compound 0.1 µM, first compound 0.1 µM.
[7] abbreviates: second compound 0.1 µM, first compound 0.316 µM.
Setting [8] is: second compound 0.1 µM, first compound 1 µM.
Setting [9] is: second compound 0.1 µM, first compound 3.16 µM.
Where [10] appears, read: second compound 0.1 µM, first compound 10 µM.
The mark [11] stands for this setting: second compound 0.316 µM, first compound 0.0316 µM.
[12] abbreviates: second compound 0.316 µM, first compound 0.1 µM.
Setting [13] is: second compound 0.316 µM, first compound 0.316 µM.
[14] abbreviates: second compound 0.316 µM, first compound 1 µM.
The mark [15] stands for this setting: second compound 0.316 µM, first compound 3.16 µM.
The mark [16] stands for this setting: second compound 0.316 µM, first compound 10 µM.
Where [17] appears, read: second compound 1 µM, first compound 0.0316 µM.
Where [18] appears, read: second compound 1 µM, first compound 0.1 µM.
Where [19] appears, read: second compound 1 µM, first compound 0.316 µM.
The mark [20] stands for this setting: second compound 1 µM, first compound 1 µM.
Setting [21] is: second compound 1 µM, first compound 3.16 µM.
Where [22] appears, read: second compound 1 µM, first compound 10 µM.
The mark [23] stands for this setting: second compound 3.16 µM, first compound 0.0316 µM.
Setting [24] is: second compound 3.16 µM, first compound 0.1 µM.
Setting [25] is: second compound 3.16 µM, first compound 0.316 µM.
Where [26] appears, read: second compound 3.16 µM, first compound 1 µM.
The mark [27] stands for this setting: second compound 3.16 µM, first compound 3.16 µM.
Where [28] appears, read: second compound 3.16 µM, first compound 10 µM.
The mark [29] stands for this setting: curve of first compound, second compound 10 µM.
Setting [30] is: second compound 10 µM, first compound 0.0316 µM.
Where [31] appears, read: second compound 10 µM, first compound 0.1 µM.

Where “and” joins values, the source holds several entries; their conditions need not be identical. Identical values can stand only once.

As to `Cn1nccc1Nc1nccc(-c2cc3c(s2)C(C)(C)N(CCN2CCOCC2)C3=O)n1` + C=CC(=O)N1CCN(c2nc(OCC3CCCN3C)nc3c2CCN(c2cccc4cccc(C)c24)C3)CC1CC#N, the IC50 reads like this: (curve of first compound, second compound 0.0316 µM) 265 nM; under setting [1], 144 nM; under setting [2], below 31.6 nM; under setting [3], below 31.6 nM; under setting [4], below 31.6 nM. Besides, the viability, T/C is 84.1% (second compound 0.0316 µM, first compound 0.0316 µM); 68% (second compound 0.0316 µM, first compound 0.1 µM); 50.4% (second compound 0.0316 µM, first compound 0.316 µM); 20.3% (second compound 0.0316 µM, first compound 1 µM); 22.4% (second compound 0.0316 µM, first compound 3.16 µM); 22.7% (second compound 0.0316 µM, first compound 10 µM). For the same compound, the viability, T/C runs as follows: under setting [5], 58.2%; under setting [6], 53%; under setting [7], 39.3%; under setting [8], 17.1%; under setting [9], 17.2%; under setting [10], 17%. In addition, the viability, T/C was 45.3% under setting [11]; 39.2% under setting [12]; 18.1% under setting [13]; 18% under setting [14]; 13.6% under setting [15]; 16% under setting [16]. In addition, the viability, T/C under setting [17] was 27.7%; the viability, T/C under setting [18] is 30.3%; the viability, T/C under setting [19] is 13.1%; the viability, T/C under setting [20] is 12.3%; the viability, T/C under setting [21] was 11.3%; the viability, T/C under setting [22] was 12.6%. Moreover, the viability, T/C was 2.34% under setting [23]; 0.65% under setting [24]; 1.84% under setting [25]; 4.87% under setting [26]; 4.21% under setting [27]; 0.35% under setting [28].

In the case of `CNCc1ccccc1-c1csc(C(C)Nc2nc(C)nc3cc(OC)c(OC)cc23)c1` (stereo not drawn), the viability, T/C by setting is: (compound 0.1 µM) 99.2% [middle of 17 runs]; (compound 10 µM) 0.22% [middle of 15 runs]. For the same compound, the IC50 reads like this: (compound alone, run of 07/19/2021) 1.54 µM [middle of 5 runs]; (compound alone, run of 07/26/2021) 1.73 µM [middle of 6 runs].

Turning to `CCNC(=O)CC1N=C(c2ccc(Cl)cc2)c2cc(OC)ccc2-n2c(C)nnc21` (stereo not drawn) + C=CC(=O)N1CCN(c2nc(=O)n(-c3c(C)ccnc3C(C)C)c3nc(-c4c(O)cccc4F)c(F)cc23)C(C)C1, the IC50 is, setting by setting: under setting [1], 74.2 nM; under setting [2], 72.7 nM; under setting [3], 66.1 nM; under setting [4], 129 nM; under setting [29], below 31.6 nM. Also, the viability, T/C was 67.2% under setting [5]; 42.7% under setting [6]; 33.2% under setting [7]; 22.6% under setting [8]; 19.3% under setting [9]; 19.4% under setting [10]. For the same compound, the viability, T/C is 71.2% under setting [11]; 41.1% under setting [12]; 30.1% under setting [13]; 24.9% under setting [14]; 21.9% under setting [15]; 20.4% under setting [16]. The viability, T/C was 60.6% under setting [17]; 45% under setting [18]; 32.5% under setting [19]; 24.6% under setting [20]; 23% under setting [21]; 19.8% under setting [22]. Also, the viability, T/C is 71.4% under setting [23]; 53.6% under setting [24]; 36.8% under setting [25]; 23.3% under setting [26]; 23.1% under setting [27]; 19.2% under setting [28]. Also, the viability, T/C was 39.2% under setting [30]; 36.9% under setting [31]; 25.3% (second compound 10 µM, first compound 0.316 µM); 22.2% (second compound 10 µM, first compound 1 µM); 17.1% (second compound 10 µM, first compound 3.16 µM); 17.4% (second compound 10 µM, first compound 10 µM).

With `CC1(C)CCC(CN2CCN(c3ccc(C(=O)NS(=O)(=O)c4ccc(NCC5CCOCC5)c([N+](=O)[O-])c4)c(Oc4cnc5[nH]ccc5c4)c3)CC2)=C(c2ccc(Cl)cc2)C1`, the viability, T/C runs as follows: (compound 0.0316 µM) 97.8% [middle of 5 runs]; (compound 0.1 µM) 98.4% [middle of 5 runs]; (compound 0.316 µM) 93.6% [middle of 5 runs]; (compound 1 µM) 89.2% [middle of 5 runs]; (compound 3.16 µM) 73.1% [middle of 5 runs]; (compound 10 µM) 26.2% [middle of 5 runs]. The 50% inhibitory concentration (IC50) (curve of compound) was 5.7 µM [middle of 5 runs].

As to `CC(C)n1nc(-c2ccc3oc(N)nc3c2)c2c(N)ncnc21` + COc1cc2nc(C)nc(NC(C)c3cc(N)cc(C(F)(F)F)c3)c2cc1OC1CCOC1, the half-maximal inhibitory concentration (IC50) was 3.27 nM under setting [1]; 2.34 nM under setting [2]; 1.8 nM under setting [3]; below 0.316 nM under setting [4]; below 0.316 nM under setting [29]. For the same compound, the viability, T/C is 103% (second compound 0.1 µM, first compound 0.000316 µM); 77% (second compound 0.1 µM, first compound 0.001 µM); 50.4% (second compound 0.1 µM, first compound 0.00316 µM); 32.2% (second compound 0.1 µM, first compound 0.01 µM); 18.1% under setting [5]; 15.5% under setting [6]. In addition, the viability, T/C (second compound 0.316 µM, first compound 0.000316 µM) is 82.5%; the viability, T/C (second compound 0.316 µM, first compound 0.001 µM) is 64.2%; the viability, T/C (second compound 0.316 µM, first compound 0.00316 µM) is 46%; the viability, T/C (second compound 0.316 µM, first compound 0.01 µM) is 26.9%; the viability, T/C under setting [11] was 21.4%; the viability, T/C under setting [12] is 13.8%. In addition, the viability, T/C (second compound 1 µM, first compound 0.000316 µM) was 86.7%; the viability, T/C (second compound 1 µM, first compound 0.001 µM) is 67.1%; the viability, T/C (second compound 1 µM, first compound 0.00316 µM) is 32%; the viability, T/C (second compound 1 µM, first compound 0.01 µM) is 23.9%; the viability, T/C under setting [17] is 16.5%; the viability, T/C under setting [18] was 11.3%. Also, the viability, T/C (second compound 3.16 µM, first compound 0.000316 µM) was 47.8%; the viability, T/C (second compound 3.16 µM, first compound 0.001 µM) is 42.4%; the viability, T/C (second compound 3.16 µM, first compound 0.00316 µM) was 25.2%; the viability, T/C (second compound 3.16 µM, first compound 0.01 µM) was 17.3%; the viability, T/C under setting [23] is 11.8%; the viability, T/C under setting [24] is 8.61%. Also, the viability, T/C by setting is: (second compound 10 µM, first compound 0.000316 µM) 37.7%; (second compound 10 µM, first compound 0.001 µM) 30.7%; (second compound 10 µM, first compound 0.00316 µM) 20.9%; (second compound 10 µM, first compound 0.01 µM) 14.8%; under setting [30], 10.9%; under setting [31], 8.71%.

`CN(C)C/C=C/C(=O)Nc1cc2c(Nc3ccc(F)c(Cl)c3)ncnc2cc1O[C@H]1CCOC1`: the viability, T/C (compound 0.000316 µM) was 105% and 110% and 102% (2×); the viability, T/C (compound 0.001 µM) was 114% (2×) and 107% and 102% (2×); the viability, T/C (compound 0.00316 µM) was 104% [middle of 5 runs]; the viability, T/C (compound 0.01 µM) is 104% [middle of 5 runs]; the viability, T/C (compound 0.0316 µM) was 105% [middle of 5 runs]; the viability, T/C (compound 0.1 µM) was 102% [middle of 5 runs]. The IC50 (curve of compound) was above 100 nM.

A word on the IC50: it is the concentration at which inhibition is half-maximal. For orientation: viability, T/C means the ratio of treated to control.
